Test results as given in paper PMC11434868, “Synthesis and Antiproliferative Effect of 3,4,5-Trimethoxylated Chalcones on Colorectal and Prostatic Cancer Cells” (Pharmaceuticals, 2024).
Where two headings read alike, the source gives them in different places.

Experiments:
HT-29 = experiment: MTT assay, antiproliferative effect on HT-29; format: cell-based, human
Method: (§1) Human CRC (HCT116 and HT-29) and PCa (DU145 and PC3) cell lines were purchased from the American Type Culture Collection (ATCC—LGC Standards, Molsheim, France). All cells were grown in RPMI 1640 medium supplemented with 10% FBS, 1% L-glutamine, 100 U/mL penicillin, and 100 μg/mL streptomycin. Cultures were maintained in a humidified atmosphere containing 5% CO2 at 37 °C. Cells were seeded in 75 cm^2 culture flasks at 1.2 × 10^4 cells/cm^2 for HCT116, DU145, and PC3 cells, and 2.0 × 10^4 for HT-29 cells. Cells were grown for 24 h in culture medium prior to exposure or not to obtain the synthesized compounds. Stock solutions (10^−2 M in DMSO) of each compound were diluted in culture medium to obtain appropriate final concentrations.
(§2) • (a) MTT assay: The antiproliferative effect of all compounds was determined using MTT assay (a metabolic activity test). Briefly, cells were seeded in 96-well culture plates at 4 × 10^3 cells/well for HCT116, PC3, and DU145 cells and 6 × 10^3 cells/well for HT-29 cells (100 µL/well), and grown for 24 h in culture medium prior to exposure or not to obtain compounds 1–15 with concentrations ranging from 5 nM to 50 μM. After 24 and 48 h of treatment, MTT (5 mg/mL in PBS) was added and incubated for another 3 h. MTT was then removed from the wells before adding 100 μL/well of DMSO. The optical density was detected with a microplate reader (Multiskan FC, Thermoscientific, Bordeaux, France) at 550 nm and cell viability was expressed as a percentage of each treatment condition compared to control cells. IC50 values were calculated for all compounds from the dose–response curve. Data are expressed as the arithmetic means ± standard error of the mean (SEM) of separate experiments. All experiments were performed at least in triplicate. • (b) Trypan blue dye exclusion method: Cells were grown for 24 h then treated with compounds 10 and 13 at indicated concentrations. After 48 h of treatment, cells were trypsinized and resuspended in complete medium. Each sample was mixed with Trypan blue solution (0.14% in HBSS, Invitrogen-GIBCO, ThermoFisher, Illkirch, France). Colored (non-viable) and dye-excluding (viable) cells were counted with the LUNA-II automated cell Counter (Logos Biosystems; MC2, Aubière, France). The control was normalized to 100% including viable and dead cells. The results indicated on the histograms were expressed as the percentage of cells compared to the control. IC50 values were determined from the percentages of viable cells compared to the control.

PC3 = experiment: MTT assay, antiproliferative effect on PC3; format: cell-based; settings: Homo sapiens
Method: as §1, §2

HCT116 = experiment: MTT assay, antiproliferative effect on HCT116; format: cell-based; settings: Homo sapiens
Method: as §1, §2

DU145 = experiment: MTT assay, antiproliferative effect on DU145; format: cell-based; settings: Homo sapiens
Method: as §1, §2

[1] = test system: cellular microtubules in HeLa cells; experiment: Quantitative assay of the cellular microtubule content (immunoluminescence); format: cell-based; settings: 30 min incubation
Method: The assay was realized as described by Laisne et al.. Briefly, 7500 HeLa cells were seeded in 96-well microplates (#655086, Greiner bioOne, Courtaboeuf, France) in 100 µL of complete medium per well and then incubated at 37 °C in 5% CO2 for 24 h. Cells were then treated for 30 min at 37 °C with the compounds at concentrations ranging from 0.1 to 1000 µM (1 microplate per molecule, 1 concentration per column), with 0.1% DMSO used as […] (6 wells per microplate). After medium aspiration, treated cells were permeabilized for 10 min using 100 µL per well of warmed (37 °C) OPT buffer (80 mM Pipes, 1 mM EGTA, 1 mM MgCl2, 0.5% Triton X-100, and 10% glycerol, pH 6.8). Cells were fixed overnight at room temperature using 100 µL per well of 4% formaldehyde (Sigma Aldrich, #252549, Saint-Quentin-Fallavier, France) in PBS. Cells were washed 3 times in PBS, 0.1% Tween-20 (100 µL per well), then primary anti-alpha-tubulin antibody (clone α3A1), 1:5000 in PBS 2% Bovine Serum Albumin (BSA), was added for 45 min. Cells were washed twice again and secondary anti-mouse antibody coupled to HRP (1:2000 in PBS 2% BSA, #715-035-150, Jackson Immuno-Research Laboratories, Cambridgeshire, UK) was added for 45 min. Then, cells were washed again with PBS and 100 µL of ECL substrate (#170-5061, Bio-Rad Laboratories Inc., Hercules, CA, USA) was injected in each well using the FLUOstar OPTIMA Microplate Reader (BMG Lab technology, Champagny-sur-Marne, France). The luminescent signal was read immediately after ECL injection. IC50 values were calculated using GraphPad Prism software (10.3.1 version) and are presented in the text as means ± SEM of three independent experiments.

[2] = test system: human CRC (HCT116 and HT-29) and human PCa (DU145 and PC3) cell lines; experiment: MTT assay, summary statements over the cell lines; format: cell-based; settings: Homo sapiens, 48 h; read-out: IC50 over the four cell lines
Method: as §1, §2

[3] = Homo sapiens, HT-29, 24 h, 24 h, read-out: IC50 HT-29 24 h
[4] = Homo sapiens, HT-29, 48 h, 48 h, read-out: IC50 HT-29 48 h
[5] = PC-3, 24 h, read-out: IC50 PC3 24 h
[6] = PC-3, 48 h, read-out: IC50 PC3 48 h
[7] = HCT-116, 24 h, read-out: IC50 HCT116 24 h
[8] = HCT-116, 48 h, read-out: IC50 HCT116 48 h
[9] = DU-145, 24 h, read-out: IC50 DU145 24 h
[10] = DU-145, 48 h, read-out: IC50 DU145 48 h
[11] = 48 h, read-out: IC50 HT-29 48 h

Row | IC50 (HT-29; [3]) | IC50 (HT-29; [4]) | IC50 (PC3; [5]) | IC50 (PC3; [6]) | IC50 (HCT116; [7]) | IC50 (HCT116; [8]) | IC50 (DU145; [9]) | IC50 (DU145; [10]) | IC50 depolymerization of cellular microtubules [1] | IC50 (HT-29; [11]) | melting point | IC50 [2] | Structure (SMILES) | activity against the HT-29 cell line (HT-29)
1 | 10.8 ± 0.57 µM | 9.65 ± 0.12 µM | 5.04 ± 0.29 µM | 4.23 ± 0.35 µM | 4.54 ± 0.65 µM | 3.27 ± 0.11 µM | 5.33 ± 0.42 µM | 3.6 ± 0.1 µM |  |  |  |  | COc1cc(C(=O)/C=C/c2ccccc2O)cc(OC)c1OC [chalcone 1, (E)-3-(2-hydroxyphenyl)-1-(3,4,5-trimethoxyphenyl)prop-2-en-1-one] | 
2 | 17.9 ± 0.69 µM | 15.1 ± 0.46 µM | 10.94 ± 0.1 µM | 9.85 ± 0.43 µM | 11.62 ± 0.06 µM | 12.1 ± 0.44 µM | 11.3 ± 0.48 µM | 11.2 ± 0.44 µM | no effect |  |  |  | COc1cc(C(=O)/C=C/c2ccc(O)cc2)cc(OC)c1OC [chalcone 3, (E)-3-(4-hydroxyphenyl)-1-(3,4,5-trimethoxyphenyl)prop-2-en-1-one] | 
3 | 21.3 ± 0.94 µM | 17.7 ± 0.29 µM | 4.8 ± 0.48 µM | 3.05 ± 0.12 µM | 8.79 ± 0.39 µM | 3.98 ± 0.22 µM | 4.2 ± 0.2 µM | 2.69 ± 0.22 µM |  |  |  |  | COc1cc(O)ccc1/C=C/C(=O)c1cc(OC)c(OC)c(OC)c1 [chalcone 4, (E)-3-(4-hydroxy-2-methoxyphenyl)-1-(3,4,5-trimethoxyphenyl)prop-2-en-1-one] | 
4 | 25.2 ± 1.28 µM | > 20 µM | 5.54 ± 0.31 µM | 4 ± 0.3 µM | 8.72 ± 0.41 µM | 4.92 ± 0.49 µM | 5.5 ± 0.26 µM | 4.37 ± 0.3 µM |  | 22.1 ± 0.48 µM |  |  | COc1ccc(O)cc1/C=C/C(=O)c1cc(OC)c(OC)c(OC)c1 [chalcone 5, (E)-3-(5-hydroxy-2-methoxyphenyl)-1-(3,4,5-trimethoxyphenyl)prop-2-en-1-one] | 
5 | 12.3 ± 0.37 µM | 10.6 ± 0.62 µM | 3.31 ± 0.22 µM | 2.81 ± 0.16 µM | 5.27 ± 0.37 µM | 3.44 ± 0.42 µM | 2.84 ± 0.14 µM | 2.7 ± 0.1 µM |  |  |  |  | COc1ccc(O)c(/C=C/C(=O)c2cc(OC)c(OC)c(OC)c2)c1 [chalcone 6, (E)-3-(2-hydroxy-5-methoxyphenyl)-1-(3,4,5-trimethoxyphenyl)prop-2-en-1-one] | 
6 | 14.4 ± 0.65 µM | 11.4 ± 0.68 µM | 2.57 ± 0.44 µM | 1.47 ± 0.27 µM | 13.4 ± 0.21 µM | 3.99 ± 0.16 µM | 2.99 ± 0.33 µM | 1.33 ± 0.16 µM |  |  |  |  | COc1ccc(/C=C/C(=O)c2cc(OC)c(OC)c(OC)c2)c(O)c1 [chalcone 7, (E)-3-(2-hydroxy-4-methoxyphenyl)-1-(3,4,5-trimethoxyphenyl)prop-2-en-1-one] | 
7 | 32.6 ± 0.51 µM | > 20 µM | 4.42 ± 0.24 µM | 2.97 ± 0.13 µM | 8.58 ± 0.28 µM | 3.48 ± 0.19 µM | 3.75 ± 0.15 µM | 2.41 ± 0.08 µM |  | 26.8 ± 0.4 µM |  |  | COc1cc(/C=C/C(=O)c2cc(OC)c(OC)c(OC)c2)ccc1O [chalcone 9, (E)-3-(4-hydroxy-3-methoxyphenyl)-1-(3,4,5-trimethoxyphenyl)prop-2-en-1-one] | 
8 | 35.6 ± 0.94 µM | > 20 µM | 24.5 ± 0.64 µM | 17.7 ± 0.55 µM | 25.2 ± 0.48 µM | 16.6 ± 0.79 µM | 22.3 ± 0.76 µM | 15.6 ± 0.84 µM |  | 23.6 ± 0.37 µM | 217 to 219 °C | > 15 µM | COc1cc(C(=O)/C=C/c2ccc(=O)[nH]c2)cc(OC)c1OC [chalcone 11, (E)-5-(3-oxo-3-(3,4,5-trimethoxyphenyl)prop-1-en-1-yl)pyridin-2(1H)-one] | 
9 | 13.6 ± 0.3 µM | 13.2 ± 0.42 µM | 11.5 ± 0.28 µM | 12.2 ± 0.23 µM | 14.2 ± 0.41 µM | 13.2 ± 0.4 µM | 10.8 ± 0.34 µM | 11.7 ± 0.29 µM |  |  | 215 to 217 °C |  | COc1cc(C(=O)/C=C/c2coc3ccccc3c2=O)cc(OC)c1OC [chalcone 12, (E)-3-(3-oxo-3-(3,4,5-trimethoxyphenyl)prop-1-en-1-yl)-4H-chromen-4-one] | 
10 | 22.9 ± 0.72 µM | 17 ± 1.41 µM | 14.11 ± 0.04 µM | 12.8 ± 0.37 µM | 15.3 ± 0.52 µM | 13.3 ± 0.3 µM | 13.2 ± 0.49 µM | 12.4 ± 0.2 µM |  |  | 183 to 185 °C |  | COc1cc(C(=O)/C=C/c2coc3ccc(C(C)C)cc3c2=O)cc(OC)c1OC [chalcone 14, (E)-6-isopropyl-3-(3-oxo-3-(3,4,5-trimethoxyphenyl)prop-1-en-1-yl)-4H-chromen-4-one] | 
11 | > 50 µM |  | 6.48 ± 0.4 µM | 7.6 ± 0.44 µM | 5.84 ± 0.28 µM | 14.1 ± 0.27 µM | 3.88 ± 0.32 µM | 7.09 ± 0.52 µM |  |  |  |  | COc1cc(C(=O)/C=C/c2coc3ccc(O)cc3c2=O)cc(OC)c1OC [chalcone 15, (E)-6-hydroxy-3-(3-oxo-3-(3,4,5-trimethoxyphenyl)prop-1-en-1-yl)-4H-chromen-4-one] | not active
